Data taken from US20180177749A1, “USE OF CYP EXPRESSION TO DIRECT THERAPEUTIC INTERVENTION IN CANCER” (REGENTS OF THE UNIVERSITY OF MINNESOTA, priority 2016, published 2018).

Columns and labels:
[1] = target: T1, CYP4A11 (Homo sapiens, UniProt Q02928); experiment: CYP4A11-mediated EET biosynthesis; type: biochemical; settings: 25 to 100 uM
T1 sequence (Q02928 5-519): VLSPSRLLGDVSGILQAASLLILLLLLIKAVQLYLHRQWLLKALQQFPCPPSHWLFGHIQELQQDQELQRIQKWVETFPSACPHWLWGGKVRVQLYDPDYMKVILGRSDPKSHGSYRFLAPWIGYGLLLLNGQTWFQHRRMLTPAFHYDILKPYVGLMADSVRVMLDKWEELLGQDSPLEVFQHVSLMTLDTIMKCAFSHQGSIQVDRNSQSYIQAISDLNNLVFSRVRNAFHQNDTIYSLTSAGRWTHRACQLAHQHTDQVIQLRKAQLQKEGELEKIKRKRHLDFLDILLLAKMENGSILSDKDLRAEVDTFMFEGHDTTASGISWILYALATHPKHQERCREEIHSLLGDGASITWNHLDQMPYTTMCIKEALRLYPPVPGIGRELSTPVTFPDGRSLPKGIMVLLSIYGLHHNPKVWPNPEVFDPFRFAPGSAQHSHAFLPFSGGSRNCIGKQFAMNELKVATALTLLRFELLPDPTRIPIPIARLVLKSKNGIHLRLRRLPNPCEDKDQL

[2] = test system: MDA-MB-231; experiment: MTT cell proliferation assay, MDA-MB-231; type: cell-based, human
Protocol: The human breast cancer cell lines MCF-7, T47D, and MDA-MB-231 described above were grown in Minimal Essential Medium (MCF-7), RPMI 1640 with insulin (0.2 U/mL) and 1 mM Na pyruvate (T47D) or DMEM containing 10% fetal bovine serum (FBS) (MDA-MB-231), which was defined as complete medium (CM). Cells were grown at 37° C. in a 5% CO2 incubator. […] MTT was then added (5 mg/ml), and after 2 h of incubation, the plates were centrifuged. The supernatant was removed; DMSO was added, and the absorbance was read at 540 nm with a BioTek 96-well plate reader.

[3] = test system: MDA-MB-231 cells; experiment: Measurement of OCR and ECAR, MDA-MB-231; type: cell-based, human; settings: t-AUCB 2.5, 5 μM, HBB 20, 40 μM
Protocol: Cells were maintained in growth medium consisting of 10% FBS at 37° C. with 5% CO2 and seeded at 100,000 cells per well in XF24-well cell culture microplates (Seahorse Bioscience, North Billirica, Mass.). Concentrated stocks of HBB were prepared in DMSO. HBB was diluted to 10× working concentration in XF assay medium (a non-buffered medium including 2 mM L-glutamine but no sodium bicarbonate (buffering agent), glucose, or sodium pyruvate). Assays were performed in the XF Extracellular Flux Analyzer (Seahorse Bioscience that measures uptake and excretion of metabolic end products in real time). Oxygen consumption rate (OCR) and extracellular acidification rate (ECAR) were measured using an XF Assay Kit. OCR is reported in pmoles/minute and ECAR in mpH/minute. Before analysis, the cells were switched from culture medium to XF assay medium. After baseline measurements, 75 μl of HBB prepared in assay medium was injected into each well to reach final working concentrations. After addition of HBB, OCR and ECAR were measured at 18-minute intervals. […] There were 6 replicates for the studies of the 3-18 and 4-14 cell lines.

## CCCCCCNC(=N)NC(=N)NCc1ccccc1 [HBB, N1-hexyl-N5-benzyl-biguanide]
[1]
  inhibition of EET production by CYP4A11: only weakly
[2]; Homo sapiens, MDA-MB-231, Triple negative
  IC50: 20.5 µM
[2]; MDA-MB-231, (±)-14,15-EET 1 μM, 24 hours
  growth inhibition abrogated by concurrent (±)-14,15-EET: no dependence on (±)-14,15-EET
[3]
  extracellular acidification rate (ECAR): least inhibition of ECAR
  oxygen consumption rate (OCR): significant vs. vehicle
